Results as given in ChEMBL document CHEMBL3751784, “Synthesis of novel 1-substituted triazole linked 1,2-benzothiazine 1,1-dioxido propenone derivatives as potent anti-inflammatory agents and inhibitors of monocyte-to-macrophage differentiation” (2015).
The source made the active and inactive calls. No cut-off for these calls is given here.

Assays:
[1] = Antiinflammatory activity in human THP1 cells assessed as inhibition of PMA-induced TNFalpha secretion at 10 uM preincubated for 2 hrs followed by PMA addition measured after 48 hrs by ELISA; format: functional; conditions: THP-1
THP-1 [2] = experiment: (§1) Antiinflammatory activity in human THP1 cells assessed as inhibition of PMA-induced IL-1beta secretion at 10 uM preincubated for 2 hrs followed by PMA addition measured after 48 hrs by ELISA; format: functional
THP-1 [3] = experiment: (§2) Antiinflammatory activity in human THP1 cells assessed as inhibition of PMA-induced MCP-1 secretion at 10 uM preincubated for 2 hrs followed by PMA addition measured after 48 hrs by ELISA; format: functional
[4] = Cytotoxicity against human THP1 cells assessed as cell viability at 20 uM after 48 hrs by tryphan blue dye exclusion assay relative to control; format: functional; conditions: THP-1, 48 h, read-out: Activity
THP-1 [5] = experiment: Inhibition of PMA-induced MMP9 transcript level in human THP1 cells at 15 uM preincubated for 2 hrs followed by PMA addition measured after 24 hrs by RT-PCR analysis; format: functional, cell-based
THP-1 [6] = experiment: Inhibition of PMA-induced monocyte to macrophage differentiation in human THP1 cells assessed as reduction in MMP9 enzyme activity at 15 uM preincubated for 2 hrs followed by PMA addition measured after 48 hrs by gelatin zymographic analysis; format: functional, cell-based
THP-1 [7] = experiment: Inhibition of PMA-induced monocyte/macrophage invasion in human THP1 cells at 15 uM preincubated for 2 hrs followed by PMA addition measured after 48 hrs by collagen-coated Boyden chamber invasion assay; format: functional, cell-based
THP-1 [8] = experiment: Inhibition of PMA-induced monocyte to macrophage differentiation in human THP1 cells assessed as reduction in MMP2 enzyme activity at 15 uM preincubated for 2 hrs followed by PMA addition measured after 48 hrs by gelatin zymographic analysis; format: functional, cell-based
[9] = as §1; format: functional; conditions: THP-1
[10] = as §2; format: functional; conditions: THP-1
THP-1 [11] = experiment: Antiinflammatory activity in human THP1 cells assessed as inhibition of PMA-induced COX2 mRNA level preincubated for 2 hrs followed by PMA addition measured after 48 hrs by RT-PCR analysis; format: functional, cell-based
THP-1 [12] = experiment: Antiinflammatory activity in human THP1 cells assessed as inhibition of PMA-induced TNFalpha secretion preincubated for 2 hrs followed by PMA addition measured after 48 hrs by ELISA; format: functional, cell-based
THP-1 [13] = experiment: Antiinflammatory activity in human THP1 cells assessed as inhibition of PMA-induced IL-1beta secretion preincubated for 2 hrs followed by PMA addition measured after 48 hrs by ELISA; format: functional, cell-based
THP-1 [14] = experiment: Antiinflammatory activity in human THP1 cells assessed as inhibition of PMA-induced MCP-1 secretion preincubated for 2 hrs followed by PMA addition measured after 48 hrs by ELISA; format: functional, cell-based
THP-1 [15] = experiment: Inhibition of PMA-induced monocyte to macrophage differentiation in human THP1 cells assessed as reduction in cell adherence at 15 uM preincubated for 2 hrs followed by PMA addition measured after 48 hrs by phase contrast microscopic analysis; format: functional, cell-based
THP-1 [16] = experiment: Inhibition of PMA-induced monocyte to macrophage differentiation in human THP1 cells assessed as reduction in cell size at 15 uM preincubated for 2 hrs followed by PMA addition measured after 48 hrs by mitotracker dye-based confocal microscopic analysis; format: functional
THP-1 [17] = experiment: Inhibition of PMA-induced monocyte to macrophage differentiation in human THP1 cells assessed as reduction in LOX-1 transcript level at 15 uM preincubated for 2 hrs followed by PMA addition measured after 24 hrs by RT-PCR analysis; format: functional, cell-based
THP-1 [18] = experiment: Inhibition of PMA-induced monocyte to macrophage differentiation in human THP1 cells assessed as reduction in CD-36 transcript level at 15 uM preincubated for 2 hrs followed by PMA addition measured after 24 hrs by RT-PCR analysis; format: functional, cell-based
THP-1 [19] = experiment: Inhibition of PMA-induced monocyte to macrophage differentiation in human THP1 cells assessed as reduction in lysosomal activity at 15 uM preincubated for 2 hrs followed by PMA addition measured after 48 hrs by lysotracker dye-based fluorescence microscopic analysis; format: functional, cell-based
THP-1 [20] = experiment: Inhibition of PMA-induced MMP1 transcript level in human THP1 cells at 15 uM preincubated for 2 hrs followed by PMA addition measured after 24 hrs by RT-PCR analysis; format: functional, cell-based

SMILES	inhibition at 10 µM [1] [%]	inhibition (THP-1 [2])	inhibition (THP-1 [3])	viability at 20 µM [4] [%]	inhibition (THP-1 [5])	inhibition (THP-1 [6])	inhibition (THP-1 [7])	inhibition (THP-1 [8])	inhibition at 10 µM [9] [%]	inhibition at 10 µM [10] [%]	inhibition (THP-1 [11])	inhibition (THP-1 [12])	inhibition (THP-1 [13])	inhibition (THP-1 [14])	inhibition (THP-1 [15])	inhibition (THP-1 [16])	inhibition (THP-1 [17])	inhibition (THP-1 [18])	inhibition (THP-1 [19])	inhibition (THP-1 [20])
CN1C(C(=O)/C=C/c2cn(-c3cccc(F)c3)nn2)=C(O)c2ccccc2S1(=O)=O	48.3	inactive	inactive	93																
CN1C(C(=O)/C=C/c2cn(CC(=O)Nc3cccc(C(F)(F)F)c3)nn2)=C(O)c2ccccc2S1(=O)=O	87.6			96.2	Active	Active	Active	inactive	83.6	85.1	Active	Dose-dependent effect	Dose-dependent effect	Dose-dependent effect	Active	Active	Active	Active	Active	Active
